Where two headings read alike, the source gives them in different places.
Tested on: E. coli
Test: microbe, parasite or virus in culture
Assay type: cell-based
Settings: for MIC: Escherichia coli, BW25113, read-out: MIC Assay Result (g/L 3-HP), anaerobic; for % Increase Over Control: anaerobic
Protocol: For MIC evaluations, the final results are expressed in chemical agent concentrations determined by analysis of the stock solution by HPLC (i.e., see Subsection IIIb).
The minimum inhibitory concentration (MIC) was determined anaerobically in a 96 well-plate format. […] Media supplements were added according to levels reported in the Supplements Table, where specified. Overnight cultures of strains were grown in triplicate in 5 mL LB (with antibiotic where appropriate). A 1% (v/v) inoculum was introduced into a 5 ml culture of M9 minimal media.

Which MIC (strain BX_00118.0: BW25113 wild type, pJ251 (control), M9 + Kan (20 μg/mL)) does the source give for O=C(O)CCO [3-HP, 3-hydroxypropionic acid] here?
The MIC was 15 g/L.

What about the MIC (strain BX_00138.0: BW25113 wild type, pSmart-LC-Kan (control), M9 + Kan (20 μg/mLl)) of the same compound?
The MIC was 25 g/L.

And the MIC (strain BX_00144.0: BW25113 wild type, pSmart-HC-Amp (control), M9 + Amp (100 μg/mL))?
Its MIC is 25 g/L.

What about the MIC (strain BX_00319.0: BW25113 wild type, pK223-aroH, M9 + Amp 100 μg/mL + 1 mM IPTG) of the same compound?
Its MIC is 20 g/L.

What about the MIC (strain BX_00320.0: BW25113 wild type, pK223-metE C645A, M9 + Amp 100 μg/mL + 1 mM IPTG) of the same compound?
The MIC was 20 g/L.

What about the MIC (strain BX_00322.0: BW25113 wild type, pJ61-speFED, M9 + Kan 20 μg/mL) of the same compound?
The MIC was 25 g/L.

What about the MIC (strain BX_00323.0: BW25113 wild type, pJ61-aroG, M9 + Kan 20 μg/mL) of the same compound?
Its MIC is 20 g/L.

And the MIC (strain BX_00324.0: BW25113 wild type, pJ61-thrA, M9 + Kan 20 μg/mL)?
Its MIC is 20 g/L.

What about the MIC (strain BX_00325.0: BW25113 wild type, pJ61-asd, M9 + Kan 20 μg/mL) of the same compound?
The MIC was 20 g/L.

And the MIC (strain BX_00326.0: BW25113 wild type, pJ61-ilvA, M9 + Kan 20 μg/mL)?
Its MIC is 20 g/L.

And the MIC (strain BX_00327.0: BW25113 wild type, pJ61-cysM, M9 + Kan 20 μg/mL)?
The MIC was 20 g/L.

And the MIC (strain BX_00357.0: BW25113 wild type, pKK223-aroH*445, M9 + Amp 100 μg/mL + 1 mM IPTG)?
Its MIC is 20 g/L.

What about the MIC (strain BX_00358.0: BW25113 wild type, pKK223-aroH*447, M9 + Amp 100 μg/mL + 1 mM IPTG) of the same compound?
Its MIC is 20 g/L.

And the MIC (strain BX_00359.0: BW25113 wild type, pKK223-aroH*457, M9 + Amp 100 μg/mL + 1 mM IPTG)?
Its MIC is 20 g/L.

What about the MIC (strain BX_00360.0: BW25113 wild type, pACYC177 (Kan only)-cynTS, M9 + Kan 20 μg/mL) of the same compound?
Its MIC is 20 g/L.

And the MIC (strain BX_00362.0: BW25113 wild type, pACYC177 (Kan only)-aroH, M9 + Kan 20 μg/mL + 1 mM IPTG)?
The MIC was 20 g/L.

And the MIC (strain BX_00363.0: BW25113 wild type, pACYC177 (Kan only)-speB, M9 + Kan 20 μg/mL)?
The MIC was 20 g/L.

And the MIC (strain BX_00364.0: BW25113 wild type, pACYC177 (Kan only)-metE, M9 + Kan 20 μg/mL + 1 mM IPTG)?
The MIC was 20 g/L.

And the MIC (strain BX_00365.0: BW25113 wild type, pACYC177 (Kan only)-metC, M9 + Kan 20 μg/mL)?
Its MIC is 20 g/L.

What about the MIC (strain BX_00368.0: BW25113 wild type, pBT-3-cynTS, M9 + Cm (20 μg/mL)) of the same compound?
The MIC was 20 g/L.

And the MIC (strain BX_00426.0: BW25113 ΔnrdR::frt, pSmart-HC-Amp-cadA, M9 + Amp (100 μg/mL))?
Its MIC is 26.7 g/L.

What about the “% Increase Over Control” value (strain BX_00311.0 (pSmart-LC-Kan-glyA-ORF)) of the same compound?
Its value is 20%.

And the “% Increase Over Control” value (strain BX_00319.0 (pK223-aroH))?
The value was 33%.

And the “% Increase Over Control” value (strain BX_00320.0 (pK223-metE C645A))?
Its value is 33%.

What about the “% Increase Over Control” value (strain BX_00321.0 (pK223-ct-his-thrA)) of the same compound?
Its value is 33%.

And the “% Increase Over Control” value (strain BX_00322.0 (pJ61-speFED))?
The value was 67%.

And the “% Increase Over Control” value (strain BX_00323.0 (pJ61-aroG))?
The value was 33%.

What about the “% Increase Over Control” value (strain BX_00324.0 (pJ61-thrA)) of the same compound?
The value was 33%.

And the “% Increase Over Control” value (strain BX_00325.0 (pJ61-asd))?
Its value is 33%.

What about the “% Increase Over Control” value (strain BX_00326.0 (pJ61-ilvA)) of the same compound?
The value was 33%.

What about the “% Increase Over Control” value (strain BX_00327.0 (pJ61-cysM)) of the same compound?
Its value is 33%.

What about the “% Increase Over Control” value (strain BX_00357.0 (pKK223-aroH*445)) of the same compound?
The value was 33%.

And the “% Increase Over Control” value (strain BX_00358.0 (pKK223-aroH*447))?
Its value is 33%.

What about the “% Increase Over Control” value (strain BX_00359.0 (pKK223-aroH*457)) of the same compound?
The value was 33%.

What about the “% Increase Over Control” value (strain BX_00360.0 (pACYC177 (Kan only)-cynTS)) of the same compound?
Its value is 33%.

And the “% Increase Over Control” value (strain BX_00362.0 (pACYC177 (Kan only)-aroH))?
The value was 33%.

And the “% Increase Over Control” value (strain BX_00363.0 (pACYC177 (Kan only)-speB))?
The value was 33%.

And the “% Increase Over Control” value (strain BX_00364.0 (pACYC177 (Kan only)-metE))?
Its value is 33%.

What about the “% Increase Over Control” value (strain BX_00365.0 (pACYC177 (Kan only)-metC)) of the same compound?
The value was 33%.

And the “% Increase Over Control” value (strain BX_00368.0 (pBT-3-cynTS))?
The value was 33%.

What about the “% Increase Over Control” value (strain BX_00426.0 (ΔnrdR::frt, pSmart-HC-Amp-cadA)) of the same compound?
Its value is 7%.
